Measured values from the supplement of paper PMC10307832.

Assays:
Assay in all cases: relative viability (nuclei count vs DMSO), 5 days (fraction); higher = more cells survive
[1] = compound: CC1=C(C(=NN1)C)CC2=C(C3=C(S2)N(C(=O)N(C3=O)C)CC(C)C)C(=O)N4C[C@@H](CO4)O + CC(C)C[C@H](NC(=O)[C@H](Cc1ccccc1)NC(=O)c1cnccn1)B(O)O [Bortezomib] (partner 0.002 µM)
How it was run: (§1)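 Lung cancer cell lines in 1536-well plates were dosed by pin tool the day after seeding, either with one drug alone or with a fixed anchor-drug dose plus five library-drug doses (not always all listed) in √10 steps. After 5 days, cells were fixed and their nuclei stained in one step (final 0.05% Triton X-100, 1% formaldehyde, 1 ug/ml Hoechst), then counted on 4× images. Relative viability is the nuclei count in treated wells divided by that in vehicle wells. Values are medians of duplicate plates.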

[2] = compound: CC1=C(C(=NN1)C)CC2=C(C3=C(S2)N(C(=O)N(C3=O)C)CC(C)C)C(=O)N4C[C@@H](CO4)O + CC1(C)CCC(c2ccc(Cl)cc2)=C(CN2CCN(c3ccc(C(=O)NS(=O)(=O)c4ccc(N[C@H](CCN5CCOCC5)CSc5ccccc5)c(S(=O)(=O)C(F)(F)F)c4)cc3)CC2)C1 [Navitoclax] (partner 0.5 µM)
How it was run: as §1

[3] = compound: CC1=C(C(=NN1)C)CC2=C(C3=C(S2)N(C(=O)N(C3=O)C)CC(C)C)C(=O)N4C[C@@H](CO4)O + Nc1nc2[nH]cc(CCc3ccc(C(=O)N[C@@H](CCC(=O)O)C(=O)O)cc3)c2c(=O)[nH]1 [Pemetrexed] (partner 0.2 µM)
How it was run: as §1

IDH-C35 + Phenformin = compound: Cc1ccccc1C(C(=O)NC1CCCCC1)N(C(=O)Cn1ccnc1C)c1cccc(F)c1 [IDH-C35] + N=C(N)NC(=N)NCCc1ccccc1 [Phenformin] (partner 250 µM)
How it was run: as §1

| Cell Line | relative viability ([1]; first compound 0.0025 µM) | relative viability ([1]; first compound 0.007906 µM) | relative viability ([1]; first compound 0.025 µM) | relative viability ([1]; first compound 0.07906 µM) | relative viability ([1]; first compound 0.25 µM) | relative viability ([2]; first compound 0.0025 µM) | relative viability ([2]; first compound 0.007906 µM) | relative viability ([2]; first compound 0.025 µM) | relative viability ([2]; first compound 0.07906 µM) | relative viability ([2]; first compound 0.25 µM) | relative viability ([3]; first compound 0.0025 µM) | relative viability ([3]; first compound 0.007906 µM) | relative viability ([3]; first compound 0.025 µM) | relative viability ([3]; first compound 0.07906 µM) | relative viability ([3]; first compound 0.25 µM) | relative viability (IDH-C35 + Phenformin; first compound 0.08 µM) | relative viability (IDH-C35 + Phenformin; first compound 0.253 µM) | relative viability (IDH-C35 + Phenformin; first compound 0.8 µM) | relative viability (IDH-C35 + Phenformin; first compound 2.53 µM) | relative viability (IDH-C35 + Phenformin; first compound 8 µM) |
| --- | --- | --- | --- | --- | --- | --- | --- | --- | --- | --- | --- | --- | --- | --- | --- | --- | --- | --- | --- | --- |
| HCC-78 | 0.526 | 0.614 | 0.535 | 0.543 | 0.413 | 0.834 | 0.743 | 0.868 | 0.716 | 0.768 | 0.904 | 0.887 | 0.897 | 0.951 | 0.925 | 0.608 | 0.682 | 0.644 | 0.798 | 0.745 |
| HCC-366 | 1.04 | 1.1 | 0.958 | 1.07 | 1.13 | 1.09 | 0.997 | 1.05 | 1.03 | 1.13 | 0.178 | 0.191 | 0.133 | 0.172 | 0.181 | 0.658 | 0.629 | 0.621 | – | 0.578 |
| HCC-827 | 0.923 | 1.04 | 0.985 | 0.913 | 1.08 | 0.983 | 1.08 | 1.03 | 1.04 | 1.04 | 0.245 | 0.27 | 0.272 | 0.288 | 0.237 | 0.425 | 0.348 | 0.384 | 0.397 | 0.406 |
| IA-LM | 0.923 | 0.652 | 0.815 | 1 | 0.883 | 0.738 | 0.796 | 0.912 | 0.784 | 0.722 | – | – | – | – | – | – | – | – | – | – |
| LCLC-103H | 1.11 | 1.08 | 1.15 | 1.04 | 1.05 | – | – | – | – | – | 0.437 | 0.474 | 0.444 | 0.459 | 0.505 | 0.308 | 0.338 | 0.344 | 0.364 | 0.34 |
| LK-2 | – | – | – | – | – | 0.884 | 0.852 | 0.746 | 0.983 | 0.949 | 0.307 | 0.347 | 0.245 | 0.3 | 0.257 | 0.564 | 0.474 | 0.476 | 0.27 | 0.623 |
| NCI-H358 | – | – | – | – | – | – | – | – | – | – | 0.172 | 0.185 | 0.159 | 0.157 | 0.181 | 0.366 | 0.33 | 0.337 | 0.388 | 0.328 |
| NCI-H522 | – | – | – | – | – | – | – | – | – | – | 1.14 | 1.37 | 0.98 | 0.54 | 0.643 | 0.643 | 0.65 | 0.764 | 0.629 | 0.659 |
| NCI-H650 | 1.02 | 0.714 | 0.671 | 0.757 | 0.825 | – | – | – | – | – | 0.983 | 0.989 | 0.775 | 0.949 | 0.957 | 0.453 | 0.465 | 0.505 | – | 0.421 |
| NCI-H661 | 1 | 1.01 | 0.692 | 0.882 | 0.635 | – | – | – | – | – | 0.922 | 0.973 | 0.899 | 0.924 | 0.899 | 0.305 | 0.275 | 0.307 | 0.28 | 0.266 |
| NCI-H727 | 0.919 | 0.583 | 0.694 | 0.716 | 0.873 | 0.44 | 0.36 | 0.344 | 0.364 | 0.439 | – | – | – | – | – | 0.471 | 0.525 | 0.509 | 0.493 | 0.579 |
| NCI-H1299 | 1.03 | 0.946 | 0.975 | 1.01 | 1.01 | 1.08 | 1.04 | 1.08 | 1.05 | 0.987 | – | – | – | – | – | – | – | – | – | – |
| NCI-H1395 | – | – | – | – | – | 1.09 | 0.931 | 1.01 | 0.859 | 0.886 | 0.925 | 0.791 | 0.827 | 0.796 | 0.718 | 0.45 | 0.477 | 0.498 | 0.396 | 0.44 |
| NCI-H1563 | 0.943 | 0.938 | 0.938 | 0.811 | 0.818 | – | – | – | – | – | 0.796 | 0.795 | 0.686 | 0.742 | 0.857 | 0.703 | 0.625 | 0.696 | 0.623 | 0.649 |
| NCI-H1623 | – | – | – | – | – | – | – | – | – | – | – | – | – | – | – | 0.604 | 0.638 | 0.573 | 0.613 | 0.557 |
| NCI-H1648 | – | – | – | – | – | – | – | – | – | – | 0.69 | 0.783 | 0.61 | 0.502 | 0.673 | – | – | – | – | – |
| NCI-H1703 | 0.265 | 0.223 | 0.221 | 0.3 | 0.256 | 1.36 | 1.4 | 0.972 | 0.928 | 0.744 | – | – | – | – | – | – | – | – | – | – |
| NCI-H1793 | – | – | – | – | – | 0.617 | 0.415 | 0.411 | 0.435 | 0.501 | 0.973 | 1.13 | 0.883 | 0.825 | 0.609 | 0.399 | 0.418 | 0.399 | – | 0.337 |
| NCI-H1944 | – | – | – | – | – | 1.03 | 1.04 | 1.08 | 1.08 | 1.02 | 0.614 | 0.681 | 0.609 | 0.594 | 0.622 | 0.212 | 0.183 | 0.202 | 0.18 | 0.192 |
| NCI-H2170 | – | – | – | – | – | 0.613 | 0.747 | 0.556 | 0.612 | 0.543 | 0.261 | 0.274 | 0.252 | 0.248 | 0.266 | 0.393 | 0.415 | 0.403 | 0.425 | 0.412 |
| NCI-H2342 | – | – | – | – | – | – | – | – | – | – | 0.748 | 0.859 | 0.719 | 0.72 | 0.65 | 0.572 | 0.566 | 0.579 | 0.651 | 0.527 |
| SK-MES-1 | – | – | – | – | – | 1.3 | 1.42 | 1.12 | 1.28 | 1.33 | 1.08 | 0.988 | 0.857 | 0.967 | 0.988 | 0.696 | 0.649 | 0.6 | 0.673 | 0.648 |
| SW 900 | – | – | – | – | – | – | – | – | – | – | 0.489 | 0.456 | 0.489 | 0.529 | 0.434 | 0.669 | 0.591 | 0.56 | 0.615 | 0.438 |
